Tests used:
[1] = in vitro; format: in vitro ADME; settings: rat, microsomes
[2] = mean (% CV); cited from earlier work
[3] = tested on: COX1 synthesis in mitochondria isolated from HEK293 cells; assay: Mitochondrial in organello translation; format: biochemical, human; settings: even up to 1 mM
[4] = rat IV; mean (% CV); cited from earlier work

Question: Which remaining at 1.5 h [1] does the source give for `CN[C@@H]1[C@H](O)[C@H](NC)[C@H]2O[C@@]3(O)C(=O)C[C@@H](C)O[C@H]3O[C@@H]2[C@H]1O` [Spectinomycin, spectinomycin] here?
Answer: 80.4%

Question: And the “Protein serum binding (Rat) % bound” value [2]?
Answer: 12.7 (7.5)^2%

Question: What about the “Inhibition of in organello mitochondrial translation” value [3] of the same compound?
Answer: did not inhibit

Question: What about the “% excreted unchanged in urine” value [4] of the same compound?
Answer: 55.3 (27.0)^2%

Question: And the CL [4]?
Answer: 0.60 (11.5)^2 L/h/kg

Question: And the Vd [4]?
Answer: 0.76 (45.2)^2 L/kg

Question: What about the t½ [4] of the same compound?
Answer: 0.75 (49.3)^2 h

Source: publication PMC3972818 (Nature medicine, 2014)
